Assay results published in PMC3608651, “A Broad Profile of Co-Dominant Epitopes Shapes the Peripheral Mycobacterium tuberculosis Specific CD8+ T-Cell Immune Response in South African Patients with Active Tuberculosis” (PLoS ONE, 2013).

Experiments:
Format in all cases: binding
[1] = target: HLA-A*02:01 (Homo sapiens, UniProt P04439, D140Y/D185E/D98H/E176V/E277Q/G131W/G231S/I119V/I121R/I166T/I218V/L300P/L318F/N151K/N90K/P208A/P217A/Q86G/Q94H/R138H/R169H/T345S); details: percent relative the binding of positive control peptide […]; plate-bound monomer 0.5 µg/ml; duplicated experiments; positive binder >40%
[2] = target: HLA-A*24:02 (Homo sapiens, UniProt P04439, D101N/D140Y/D185E/E176V/E190D/F33S/G103R/G107R/I119L/I121M/I306V/K335N/L105A/L180Q/L300P/N151K/N90K/Q86E/Q94H/R106L/R138H/R89G/T104I/T345S/V100E/W191G/Y123F); details: percent relative the binding of positive control peptide […]; duplicated experiments; positive binder >40%
[3] = target: HLA-A*30:01 (Homo sapiens, UniProt P04439, D140H/D185E/E176W/F33S/G80R/H175R/K168Q/R138E/R41S); details: percent relative the binding of positive control peptide […]; duplicated experiments; positive binder >40%
[4] = target: HLA-A*30:02 (Homo sapiens, UniProt P04439, D101N/D140H/D185E/E176R/F33S/G80R/H175R/K168Q/Q94H/R138E/R41S/V100E); details: percent relative the binding of positive control peptide […]; duplicated experiments; positive binder >40%
[5] = target: HLA-A*68:01 (Homo sapiens, UniProt P04439, A269V/D185E/E176V/E277Q/E87N/F33Y/G231S/I121M/I166T/I218V/L180W/L300P/L318F/N151K/P208A/P217A/Q86R/R169H/T345S); details: percent relative the binding of positive control peptide […]; duplicated experiments; positive binder >40%
[6] = target: HLA-B*07:02 (Homo sapiens, UniProt P01889); details: percent relative the binding of positive control peptide […]; duplicated experiments; positive binder >40%
[7] = target: HLA-B*58:01 (Homo sapiens, UniProt P01889, A329T/C349S/D201E/D98Y/E176V/E187L/E204Q/E69T/G107R/I218V/I90N/K202T/L105A/L119I/N104I/N87E/Q89R/Q94S/R106L/R155S/R180L/R86G/S101N/S121R/S35A/S48A/T118I/V127L/V306I/V36M/Y140S/Y91M); details: percent relative the binding of positive control peptide […]; duplicated experiments; positive binder >40%
[8] = target: HLA-C*07:01 (Homo sapiens, UniProt P10321, K90N/S123Y); details: percent relative the binding of positive control peptide […]; duplicated experiments; positive binder >40%

Substance	Bind A*02:01 [1]	Bind A*24:02 [2]	Bind A*30:01 [3]	Bind A*30:02 [4]	Bind A*68:01 [5]	Bind B*07:02 [6]	Bind B*58:01 [7]	Bind C*07:01 [8]
DGLRAQDDY	0%	0%	2%	58%	4%	1%	0%	0%
FLTSELPQW	75%	117%	0%	3%	5%	8%	71%	0%
W YYQ SG LSI	37%	143%	18%	0%	0%	6%	0%	13%
VKPTGSAAI	0%	0%	0%	0%	0%	43%	0%	0%
FIYAGSLSA	79%	11%	0%	21%	38%	70%	2%	35%
DINTPAFEW	0%	56%	7%	0%	3%	9%	58%	10%
SPACGKAGC	16%	0%	0%	0%	0%	77%	0%	0%
QQIPKLVAN	36%	0%	10%	60%	2%	2%	16%	15%
MW GPSSDPA	6%	24%	0%	74%	7%	3%	0%	0%
PVGGQSSFY	0%	0%	0%	82%	0%	0%	0%	0%
ELGGANIPA	47%	0%	0%	0%	0%	0%	0%	0%
SALLDPSQG	0%	0%	12%	62%	0%	3%	8%	9%
WVYCGNGTP	11%	0%	0%	0%	55%	2%	4%	16%
SPAVYLLDG	0%	49%	0%	0%	0%	0%	0%	1%
LLDGLRAQD	63%	0%	8%	140%	16%	0%	0%	0%
